From paper PMC12154787, “Comprehensive Evaluation of the Effects of Hot Air Drying Temperature on the Chemical Composition, Flavor Characteristics and Biological Activity of Houttuynia cordata Thunb” (Foods, 2025)

How the values were obtained:
[1] = Pharmacokinetics of HCT constituents in rat plasma after a single dose of HCT extract; format: in vivo, SD rats
Procedure: The quantification of target compounds was conducted using an LC-TQ5200 triple quadrupole mass spectrometer (Hexin Instruments, Guangzhou, China) coupled with a HILIC column (100 × 2.1 mm, 1.8 μm; ANPEL, Shanghai, China). Chromatographic separation was achieved under isocratic conditions with a mobile phase comprising (A) 0.1% formic acid in water and (B) acetonitrile (50:50, v/v) for 4 min at a flow rate of 0.3 mL/min. The column temperature was maintained at 30 °C with a 10 μL injection volume.
Mass spectrometric detection was performed in positive electrospray ionization (ESI) mode with multiple reaction monitoring (MRM). The optimized ion source parameters were as follows: drying gas temperature, 500 °C; spray voltage, 5500 V; nebulizer gas pressure, 70 psi (482.3 kPa); drying gas flow, 8 L/min; and curtain gas flow, 3 L/min. The collision cell operated with 0.4 mL/min collision gas flow under the following voltage settings: curtain plate 800 V, orifice 70 V, detector 2300 V, with cell entrance and exit voltages of 30 V and 1 V, respectively. All analyses were performed with three replicates (n = 3).
(§1) The animal study protocol was approved by the Animal Ethics Committee of Jiangxi University of Chinese Medicine (Approval No. TEMPOR20230112). A total of 24 female SD rats (200 ± 20 g) were obtained from the Laboratory Animal Center of Jiangxi University of Chinese Medicine (Nanchang, China). Prior to experimentation, the rats were acclimated for 7 days in an air-conditioned room maintained at 24 ± 1 °C with a 12 h light/dark cycle. After one week of acclimatization with ad libitum access to sterilized food and water, the rats were randomly divided into three groups (n = 8), including a negative control, FDH: freeze-dried HCT extract (treated with 600 mg/kg BW freeze-dried HCT extracts), 50H: 50 °C hot-air dried HCT extract (treated with 600 mg/kg BW 50 °C hot-air dried HCT extracts). Blood collection and the pretreatment of serum were conducted following our previously published protocols. The identification and quantification of metabolites in rat samples were performed using analytical methodologies consistent with those employed in our previous investigations.

[2] = Metabolite identification in rat serum by UPLC-LTQ-Orbitrap-MS2 after HCT extract; format: in vivo, SD rats; settings: for Metabolite detected in Serum, 50H: 50H group (600 mg/kg BW 50 °C hot-air dried HCT extract); for Metabolite detected in Serum, FDH: FDH group (600 mg/kg BW freeze-dried HCT extract); on all read-outs here: key: +: detected; —: undetected
Procedure: The chromatographic separation was performed on an ACQUITY UPLC BEH C18 column (2.1 × 100 mm, 1.7 μm) maintained at 25 °C. […] The mobile phase flow rate was maintained at 300 μL/min with a 2 μL injection volume.
Mass spectrometric detection was carried out using an LTQ-Orbitrap system equipped with a HESI-II source operating in both positive and negative ionization modes. Full scan MS data were acquired over m/z 50–2000 with mass resolution set to 30,000 (at m/z 400). For structural elucidation, data-dependent MS/MS scans were triggered using a normalized collision energy of 45 eV in the CID cell. The diode array detector was simultaneously monitored at 280 nm and 320 nm. All instrumental operations and data acquisition were controlled by Xcalibur v2.0 software (Thermo Scientific).
as §1, with “Prior to experimentation, the rats were acclimated for 7 days in an air-conditioned room maintained at 24 ± 1 °C with a 12 h light/dark cycle.” left out

[3] = female, SD, 50H: 600 mg/kg BW 50 °C hot-air dried HCT extract
[4] = female, SD, rat, plasma, 600 mg/kg, 50H: 600 mg/kg BW 50 °C hot-air dried HCT extract
[5] = female, SD, rat, plasma, 600 mg/kg, FDH: 600 mg/kg BW freeze-dried HCT extract
[6] = 50H: 600 mg/kg BW 50 °C hot-air dried HCT extract

O=C(/C=C/c1ccc(O)c(O)c1)O[C@@H]1C[C@](O)(C(=O)O)C[C@@H](O)[C@H]1O [Chlorogenic acid, chlorogenic acid]
Tmax [1, 3]: 1.5 h
AUC [1, 4]: 0.222 ± 0.0225 µM·h
Cmax [1, 4]: 84.4 ± 2.26 nM
half-life [1, 4]: 2.05 ± 0.62 h
AUC [1, 5]: 0.231 ± 0.00787 µM·h
Cmax [1, 5]: 104 ± 9.47 nM
half-life [1, 5]: 2.25 ± 0.7 h

O=C(O)c1ccc(O)c(O)c1 [M2, protocatechuic acid]
Metabolite detected in Serum, 50H [2]: +
Metabolite detected in Serum, FDH [2]: +

COc1cc(C(=O)O)ccc1OC(C)=O [M3, 4-acetyloxy-3-methoxybenzoic acid]
Metabolite detected in Serum, 50H [2]: +
Metabolite detected in Serum, FDH [2]: +

O=C(O)CCc1ccc(O)c(O)c1 [M10, dihydrocaffeic acid]
Metabolite detected in Serum, 50H [2]: +
Metabolite detected in Serum, FDH [2]: +

CC(O)CC(=O)O (stereo not shown) [M13, 3-hydroxybutyrate]
Metabolite detected in Serum, 50H [2]: +

Nc1ccc(CCC(=O)O)c(C(=O)O)c1 [M14]
Metabolite detected in Serum, 50H [2]: +
Metabolite detected in Serum, FDH [2]: +

COc1c(O)cc2oc(-c3ccc(O)cc3)cc(=O)c2c1O [M18, hispidulin]
Metabolite detected in Serum, FDH [2]: +

O=c1cc(-c2ccc(O)cc2)oc2cc(O)cc(O)c12 [M23, apigenin]
Metabolite detected in Serum, FDH [2]: +

CCCCCCCCCC(=O)CC(=O)O [M27, decanoyl acetic acid]
Metabolite detected in Serum, 50H [2]: +
Metabolite detected in Serum, FDH [2]: +

CCCCCCCCC=CCCCCCCCC(=O)O [M37, 9-octadecenoic acid]
Metabolite detected in Serum, 50H [2]: +
Metabolite detected in Serum, FDH [2]: +

O=c1c(O)c(-c2ccc(O)c(O)c2)oc2cc(O)cc(O)c12 [Quercetin, quercetin]
Cmax [1, 6]: 378 ± 21.4 nM
T1/2 [1, 6]: 7.28 ± 4.47 h
T1/2 ([1]; FDH: 600 mg/kg BW freeze-dried HCT extract): 4.46 ± 0.14 h
Tmax [1, 3]: 2 h
AUC [1, 4]: 2.32 ± 0.0574 µM·h
AUC [1, 5]: 2.551 ± 0.017 µM·h
Cmax [1, 5]: 410 ± 12 nM

C[C@@H]1O[C@@H](OC[C@H]2O[C@@H](Oc3c(-c4ccc(O)c(O)c4)oc4cc(O)cc(O)c4c3=O)[C@H](O)[C@@H](O)[C@@H]2O)[C@H](O)[C@H](O)[C@H]1O [Rutin, rutin]
Tmax [1, 3]: 1 h
AUC [1, 4]: 0.277 ± 0.0123 µM·h
Cmax [1, 4]: 125 ± 4.95 nM
half-life [1, 4]: 2.04 ± 0.5 h
AUC [1, 5]: 0.328 ± 0.00568 µM·h
Cmax [1, 5]: 136 ± 16 nM
half-life [1, 5]: 2.61 ± 1.23 h

O=C(O)[C@H]1O[C@@H](Oc2cc3oc(-c4ccc(O)cc4)cc(=O)c3c(O)c2O)[C@H](O)[C@@H](O)[C@@H]1O [Scutellarin, scutellarin]
Tmax ([1]; female, SD, FDH: 600 mg/kg BW freeze-dried HCT extract): 1.5 h
AUC [1, 4]: 0.121 ± 0.00462 µM·h
Cmax [1, 4]: 22 ± 4.15 nM
half-life [1, 4]: 9.26 ± 4.35 h
AUC [1, 5]: 0.116 ± 0.00702 µM·h
Cmax [1, 5]: 23.9 ± 3.17 nM
half-life [1, 5]: 6.91 ± 0.65 h
